Measurements as given in publication PMC4178217, “Quinoline 3-sulfonamides inhibit lactate dehydrogenase A and reverse aerobic glycolysis in cancer cells” (Cancer & Metabolism, 2013).

System: HepG2 cells
Settings: HepG2 conditioned medium, 10 μM, 24 h
Procedure: Ten million Snu398 or HepG2 cells per flask were plated in R10 medium in T150 tissue culture flasks and allowed to attach overnight. The following morning, medium was replaced with medium containing either DMSO or 10 μM LDHA inhibitor, and cells were incubated for 24 h at 37°C. The conditioned medium was collected and cells were washed, lifted by trypsinization and pelleted. Both medium and cell samples were submitted for mass spectroscopy (MS) analysis of over 500 individual metabolites. All samples were prepared in replicates of five.

SMILES: COc1ncc(-c2ccc3c(Nc4cc(C(=O)O)cc(C5CCCC5)c4)c(S(=O)(=O)NC4CC4)cnc3c2)c(OC)n1 [Compound 2]
- fold change 1-oleoylglycerophosphocholine: 0.94
- fold change 1-palmitoleoylglycerophosphocholine*: 0.91
- fold change 1-palmitoylglycerophosphocholine: 0.94
- fold change 1-stearoylglycerophosphocholine: 0.95
- fold change 2'-O-methylguanosine: 0.70
- fold change 2-aminobutyrate: 0.91
- fold change 2-hydroxybutyrate (AHB): 0.89
- fold change 2-hydroxyglutarate: 0.93
- fold change 2-methylbutyroylcarnitine: 0.94
- fold change 2-methylbutyrylglycine: 0.81
- fold change 2-oleoylglycerophosphocholine*: 0.96
- fold change 2-palmitoylglycerophosphocholine*: 0.98
- fold change 2-stearoylglycerophosphocholine*: 1.16
- fold change 3-(4-hydroxyphenyl)lactate: 1.15
- fold change 3-dehydrocarnitine*: 1.04
- fold change 3-indoxyl sulfate: 0.96
- fold change 3-methyl-2-oxobutyrate: 0.99
- fold change 3-methyl-2-oxovalerate: 0.94
- fold change 4-acetamidobutanoate: 0.92
- fold change 4-guanidinobutanoate: 0.88
- fold change 4-methyl-2-oxopentanoate: 0.96
- fold change 5-oxoproline: 1.02
- fold change 6'-sialyllactose: 1.01
- fold change C-glycosyltryptophan*: 1.06
- fold change HEPES: 0.97
- fold change Isobar: 2-propylpentanoic acid, 2-ethylhexanoic acid: 1.01
- fold change N1-methyladenosine: 1.02
- fold change N1-methylguanosine: 0.87
- fold change N6-carbamoylthreonyladenosine: 1.10
- fold change N-acetylaspartate (NAA): 0.70
- fold change N-acetylneuraminate: 1.09
- fold change N-acetylornithine: 0.99
- fold change X - 02952: 8.06
- fold change X - 02973: 1.18
- fold change X - 03090: 0.99
- fold change X - 04015: 1.00
- fold change X - 04133: 1.08
- fold change X - 04135: 1.13
- fold change X - 04148: 0.80
- fold change X - 04252: 0.53
- fold change X - 04357: 1.09
- fold change X - 05907: 0.49
- fold change X - 06126: 0.78
- fold change X - 06911: 0.99
- fold change X - 08172: 0.15
- fold change X - 08889: 1.21
- fold change X - 08895: 1.11
- fold change X - 09008: 0.87
- fold change X - 09026: 0.58
- fold change X - 10475: 0.76
- fold change X - 10476: 0.43
- fold change X - 10634: 0.56
- fold change X - 10740: 1.18
- fold change X - 10869: 0.93
- fold change X - 11081: 1.03
- fold change X - 11315: 0.83
- fold change X - 11533: 1.04
- fold change X - 11593: 1.12
- fold change X - 11787: 1.01
- fold change X - 12013: 1.09
- fold change X - 12015: 0.97
- fold change X - 12117: 0.78
- fold change X - 12216: 0.72
- fold change X - 12339: 1.38
- fold change X - 12435: 0.91
- fold change X - 12602: 0.93
- fold change X - 12729: 1.15
- fold change X - 12749: 0.95
- fold change X - 12776: 0.86
- fold change X - 12786: 1.07
- fold change X - 12792: 0.77
- fold change X - 12799: 1.04
- fold change X - 12944: 0.83
- fold change X - 13100: 1.00
- fold change X - 13103: 0.95
- fold change X - 13104: 1.11
- fold change X - 13110: 1.00
- fold change X - 13115: 0.98
- fold change X - 13117: 1.01
- fold change X - 13166: 0.95
- fold change X - 13483: 0.84
- fold change X - 13491: 1.19
- fold change X - 13494: 0.82
- fold change X - 13496: 1.11
- fold change X - 13507: 1.00
- fold change X - 13553: 1.05
- fold change X - 13581: 1.00
- fold change X - 13857: 0.74
- fold change X - 14056: 0.96
- fold change X - 14574: 0.86
- fold change X - 14588: 0.93
- fold change X - 15558: 1.17
- fold change X - 15559: 1.15
- fold change X - 15562: 1.13
- fold change X - 15563: 1.13
- fold change X - 15678: 1.32
- fold change X - 15808: 1.14
- fold change X - 16103: 0.86
- fold change X - 16116: 1.18
- fold change X - 16200: 1.04
- fold change X - 16206: 0.95
- fold change X - 16439: 1.13
- fold change X - 16444: 1.07
- fold change X - 17112: 1.02
- fold change X - 17430: 1.13
- fold change acetylcarnitine: 0.95
- fold change acetylphosphate: 0.92
- fold change alanine: 0.99
- fold change alanylglutamine: 0.96
- fold change allantoin: 0.85
- fold change arabitol: 0.72
- fold change arachidonate (20:4n6): 1.07
- fold change arginine: 0.98
- fold change asparagine: 0.30
- fold change aspartate: 0.84
- fold change aspartylleucine: 1.01
- fold change beta-alanine: 1.41
- fold change beta-hydroxyisovalerate: 0.84
- fold change beta-hydroxypyruvate: 0.79
- fold change betaine: 0.97
- fold change biotin: 0.96
- fold change butyrylcarnitine: 0.90
- fold change caproate (6:0): 0.83
- fold change caprylate (8:0): 0.79
- fold change carnitine: 1.03
- fold change catechol sulfate: 1.01
- fold change choline: 1.06
- fold change citrate: 0.97
- fold change citrulline: 0.87
- fold change creatine: 1.02
- fold change creatinine: 0.94
- fold change cyclo(leu-ala): 0.49
- fold change cysteine: 0.78
- fold change cysteine sulfinic acid: 1.00
- fold change cysteine-glutathione disulfide: 1.28
- fold change deoxycarnitine: 0.98
- fold change dimethyl sulfoxide*: 1.04
- fold change dimethylarginine (SDMA + ADMA): 0.97
- fold change docosahexaenoate (DHA; 22:6n3): 0.92
- fold change docosapentaenoate (n3 DPA; 22:5n3): 1.17
- fold change erythritol: 0.92
- fold change erythronate*: 0.99
- fold change ethanolamine: 1.13
- fold change folate: 0.99
- fold change fructose: 1.06
- fold change fumarate: 0.80
- fold change gamma-glutamylisoleucine*: 1.02
- fold change gamma-glutamylleucine: 0.87
- fold change gamma-glutamylphenylalanine: 0.85
- fold change gamma-glutamylvaline: 0.73
- fold change glucose: 0.87
- fold change glutamate: 1.00
- fold change glutamine: 0.96
- fold change glycerate: 1.05
- fold change glycerol: 1.09
- fold change glycerol 3-phosphate (G3P): 1.47
- fold change glycerophosphorylcholine (GPC): 0.95
- fold change glycine: 0.87
- fold change glycochenodeoxycholate: 1.01
- fold change glycocholate: 0.96
- fold change glycylglycine: 0.55
- fold change glycylleucine: 0.85
- fold change glycyltyrosine: 1.01
- fold change glycylvaline: 1.06
- fold change heme*: 0.95
- fold change hexadecanedioate: 0.84
- fold change hippurate: 0.98
- fold change histidine: 1.02
- fold change homostachydrine*: 1.00
- fold change hydroquinone: 0.97
- fold change indolelactate: 1.03
- fold change isobutyrylcarnitine: 0.98
- fold change isoleucine: 1.02
- fold change isovalerate: 0.80
- fold change isovalerylcarnitine: 1.29
- fold change kynurenate: 1.06
- fold change kynurenine: 1.00
- fold change lactate: 0.89
- fold change leucine: 1.03
- fold change lysine: 0.70
- fold change lysylleucine: 1.12
- fold change malate: 1.02
- fold change mannitol: 0.57
- fold change methionine: 0.96
- fold change myo-inositol: 0.85
- fold change nicotinamide: 0.80
- fold change ornithine: 0.79
- fold change p-aminobenzoate (PABA): 0.99
- fold change p-cresol sulfate: 0.91
- fold change palmitoyl sphingomyelin: 0.92
- fold change pantothenate: 1.00
- fold change phenol red: 0.97
- fold change phenol sulfate: 0.93
- fold change phenylacetylglycine: 1.02
- fold change phenylalanine: 0.98
- fold change phosphate: 0.99
- fold change pipecolate: 0.97
- fold change pro-hydroxy-pro: 0.98
- fold change proline: 0.93
- fold change propionylcarnitine: 1.00
- fold change pseudouridine: 0.96
- fold change putrescine: 0.90
- fold change pyridoxate: 0.92
- fold change pyridoxine (Vitamin B6): 1.04
- fold change pyruvate: 1.37
- fold change ribitol: 0.75
- fold change riboflavin (Vitamin B2): 0.98
- fold change scyllo-inositol: 1.09
- fold change serine: 0.61
- fold change serotonin (5HT): 0.82
- fold change sorbitol: 0.53
- fold change succinate: 1.07
- fold change taurocholate: 1.00
- fold change taurodeoxycholate: 0.93
- fold change tetradecanedioate: 1.13
- fold change thiamin (Vitamin B1): 1.00
- fold change threitol: 0.99
- fold change threonine: 0.96
- fold change trans-4-hydroxyproline: 0.90
- fold change tryptophan: 1.03
- fold change tyrosine: 0.99
- fold change uracil: 0.88
- fold change urea: 0.83
- fold change uridine: 0.93
- fold change valerylcarnitine: 1.27
- fold change valine: 0.98
- fold change xylitol: 0.88
